# Test results published in article PMC8241751, “Influence of the Dabcyl group on the cellular uptake of cationic peptides: short oligoarginines as efficient cell-penetrating peptides” (Amino Acids, 2021).
# Where a SMILES comes first, the peptide text is derived from it. The star is where a group is joined. 5FAM = O=C1OC2(c3ccc(O)cc3Oc3cc(O)ccc32)c2ccc(C(=O)*)cc21; X1 = CN(C)c1ccc(/N=N/c2ccc(C(=O)*)cc2)cc1
# Test system: CHO-K1 cells
# Experiment: Absolute quantification of total internalised peptide by fluorometry
# Settings: for Total (37 °C–4 °C) (pmoles) Endocyt. / 4 °C/37 °C (Fluoro): CHO-K1, 60 min; for Total (37 °C–4 °C) (pmoles) Endocyt.: difference of fluorometry values at 37 °C and 4 °C; for 4 °C/37 °C (Fluoro): internalisation ratio by fluorometry; for Total 4 °C (pmoles) Transloc. / Total 37 °C (pmoles) Endocyt. + Transloc.: one million CHO-K1 cells, DMEM-F12, 60 min, cell lysis, fluorometry 525 nm vs calibration curve, mean values; for Total 4 °C (pmoles) Transloc.: pronase wash; for Total 37 °C (pmoles) Endocyt. + Transloc.: trypsin wash
# Description: We used the quantification method described earlier (Illien et al. [2016]). […] After incubation with peptides and washing the cells with HBSS, 500 μL 0.05% trypsin/EDTA 0.05% (37 °C) or 500 µL pronase 0.05% in 100 mM Tris pH 7.4 (4 °C) was added for 5 min to hydrolyze the remaining extracellular peptide, the membrane-bound peptide and to detach cells. After addition of 100 µL enzyme inhibitors (complete mini at 4 °C (Roche) or trypsin inhibitor (soybean inhibitor 5 mg/mL) at 37 °C mixed with 100 μL bovine serum albumin (1 mg/mL), cells were transferred into a microtube, centrifuged, washed with 1 mL 50 mM Tris buffer pH 7.4, 0.1% BSA, and lysed in 200 μL 50 mM Tris pH 7.4, 1 M NaCl, 1% Nonident P40. The samples were then sonicated for 15 min (to homogenise samples) and centrifugated for 10 min at 16.000 g. Fluorescence intensity in the supernatants was monitored with a MOS 200 M fluorimeter (Biologic SAS) and the maximal intensity was detected around λ = 525 nm. The maximal intensity was retained for the calibration curve and for quantification of samples. The amount of internalised peptides was calculated by comparing the fluorescence intensity of the sample with the calibration curve. For the calibration curve, we prepared a range of peptide amounts (from 2 to 500 pmol) in the lysis buffer (50 mM Tris pH 7.4, 1 M NaCl, 1% Nonidet P40) in the presence of one million suspended cells. The samples were sonicated 15 min and centrifuged at 16.000 g for 10 min. Fluorescence intensity in the supernatants was monitored with a MOS 200 M fluorimeter (Biologic SAS, France) and the maximal intensity was detected around λ = 525 nm. The fluorescence signal of peptides only was obtained by subtracting the fluorescence intensity of cell lysates (autofluorescence) from the fluorescence intensity of the sample.
smiles,measurement,setting,value
CN(C)c1ccc(/N=N/c2ccc(C(=O)N[C@@H](CCCNC(=N)N)C(=O)N[C@@H](CCCNC(=N)N)C(=O)N[C@@H](CCCNC(=N)N)C(=O)N[C@@H](CCCNC(=N)N)C(=O)N[C@@H](CCCNC(=N)N)C(=O)N[C@@H](CCCNC(=N)N)C(=O)N[C@@H](CCCCNC(=O)c3ccc4c(c3)C(=O)OC43c4ccc(O)cc4Oc4cc(O)ccc43)C(N)=O)cc2)cc1 [Dabcyl–Arg6–Lys(Cf)–NH2] (X1-RRRRRRK(5FAM)-NH2),Total (37 °C–4 °C) (pmoles) Endocyt.,[peptide] 1 μM,1.9 pmol
same,4 °C/37 °C (Fluoro),[peptide] 1 μM,0.25
same,Total 4 °C (pmoles) Transloc.,[peptide] 1 μM,0.6 ± 0.04 pmol
same,Total 37 °C (pmoles) Endocyt. + Transloc.,[peptide] 1 μM,2.5 ± 0.2 pmol
same,Total (37 °C–4 °C) (pmoles) Endocyt.,[peptide] 2.5 μM,22 pmol
same,4 °C/37 °C (Fluoro),[peptide] 2.5 μM,0.08
same,Total 4 °C (pmoles) Transloc.,[peptide] 2.5 μM,1.9 ± 0.3 pmol
same,Total 37 °C (pmoles) Endocyt. + Transloc.,[peptide] 2.5 μM,24 ± 1.3 pmol
same,Total (37 °C–4 °C) (pmoles) Endocyt.,[peptide] 5 μM,53 pmol
same,4 °C/37 °C (Fluoro),[peptide] 5 μM,0.10
same,Total 4 °C (pmoles) Transloc.,[peptide] 5 μM,6.1 ± 0.8 pmol
same,Total 37 °C (pmoles) Endocyt. + Transloc.,[peptide] 5 μM,59 ± 2.5 pmol
same,Total (37 °C–4 °C) (pmoles) Endocyt.,[peptide] 10 μM,131 pmol
same,4 °C/37 °C (Fluoro),[peptide] 10 μM,0.12
same,Total 4 °C (pmoles) Transloc.,[peptide] 10 μM,18 ± 2 pmol
same,Total 37 °C (pmoles) Endocyt. + Transloc.,[peptide] 10 μM,149 ± 6 pmol
